Measurements from patent publication US4483869A, “Thiocarnitines, process for their preparation and pharmaceutical compositions containing same” (Sigma-Tau Industrie Farmaceutiche Riunite S.p.A., priority 1980, dated 1984).
Where a name gives a salt, the structure may show the parent alone.

Assays:
[1] = test system: acetylcholine; test: Formation of acetylcholine
[2] = test system: rats; test: Protection against X-ray exposure in rats (survival after irradiation); assay type: in vivo, Albino Wister rats; conditions: 20-25 mg Kg^-1 1 hour before irradiation; for Percentage of surviving animals, day 10: 10 days from irradiation, control 90; for Percentage of surviving animals, day 20: 20 days from irradiation, control 20; for Percentage of surviving animals, day 30: 30 days from irradiation, control 10
Method: The effect of the compounds of formula (I) towards the damages provoked by X-ray exposure was studied.
The experiment animals, Albino Wister rats, treated with the compounds under examination (20-25 mg Kg^-1 1 hour before irradiation) were irradiated and checked over a time period to detect the onset of toxic effects and the time of survival with respect to the control group. […]
Protective effect of some thiocarnitines of general
formula (I) towards the damage provoked by irradiation
in rats. Percentage of surviving animals at
various days from irradiation.

[3] = Crossing of the blood-brain barrier
[4] = test system: CoA; test: Transfer of the acetyl group to CoA / acyl group donor; assay type: biochemical
[5] = Acute toxicity in the mouse, Weil's method; conditions: in vivo, ip
From the text: The acute toxicity of the compounds of general formula (I) has been studied in the mouse with the Weil method (Weil C. S., Biometr. J. 8, 249, 1952).
The LD50 values of some compounds illustrated in Table I, indicate that the compounds are remarkably well tolerated.
LD50, mg Kg^-1, ep in mouse of some thiocarnitines of general
formula (I). Weil's method (N = 5, K = 4) Cl = hydrochloride

[6] = test system: rabbit; test: Cutaneous regeneration from burns in the rabbit; assay type: in vivo; conditions: 20 mg Kg^-1 orally once a day for seven days; for Percentage of regenerated tissue, 4th day: control 20; for Percentage of regenerated tissue, 8th day: control 50
Method: The ability of the compounds of formula (I) to speed up the cutaneous regeneration from burns has been tested in the rabbit.
A 4 cm^2 cutaneous area of the average-top zone of the test animal back was burned.
The compounds were orally administered in aqueous solution at the dose of 20 mg Kg^-1 once a day for seven days. The area of cutaneous regeneration i.e. the area of the newly formed tissue, was then measured (Table III).
Effect of compounds of formula (I) on cutaneous
regeneration. Percentage of regenerated tissue at the 4th
and 8th day from treatment.

[7] = Hygroscopicity and stability to the atmosphere of the isolated product; assay type: physicochemical; conditions: for hygroscopicity: isolated product
[8] = "ep" route, Weil's method (N = 5, K = 4)

| SMILES | formation of acetylcholine [1] | Percentage of surviving animals, day 10 [2] [Percentage] | Percentage of surviving animals, day 20 [2] [Percentage] | Percentage of surviving animals, day 30 [2] [Percentage] | ability to cross the blood-brain barrier [3] | acyl group donor activity [4] | transfer of the acetyl group to CoA ([4]; in the absence of CoA carnitine acetyl transferase) | LD50 [5, 8] [mg/kg] | Percentage of regenerated tissue, 4th day [6] [Percentage] | Percentage of regenerated tissue, 8th day [6] [Percentage] | LD50 [5] [mg/kg] | hygroscopicity [7] | stability upon exposure to the atmosphere ([7]; exposure to the atmosphere) |
| --- | --- | --- | --- | --- | --- | --- | --- | --- | --- | --- | --- | --- | --- |
| CC(=O)SC(CC(=O)O)C[N+](C)(C)C (centres unmarked) [S--acetyl thiocarnitine Cl, S-acetyl thiocarnitine hydrochloride] | promotes the formation of acetylcholine | 100 | 70 | 60 | able to cross the blood-brain barrier | potent acyl group donor | able to transfer the acetyl group to CoA directly even in the absence of the enzyme | 294 | 50 | 90 |  |  |  |
| CCCC(=O)SC(CC(=O)O)C[N+](C)(C)C (centres unmarked) [S--butyryl thiocarnitine Cl, S-butyryl thiocarnitine halogenide] |  | 90 | 40 | 40 |  |  |  |  | 20 | 40 | 350 |  |  |
| CCC(CC)C(=O)SC(CC(=O)O)C[N+](C)(C)C (centres unmarked) [S--diethylacetyl thiocarnitine Cl, S-diethylacetyl thiocarnitine] |  | 80 | 60 | 30 |  |  |  | 295 | 50 | 60 |  | highly hygroscopic |  |
| CCCC(CCC)C(=O)SC(CC(=O)O)C[N+](C)(C)C (centres unmarked) [S--dipropylacetyl thiocarnitine Cl, S-dipropylacetil thiocarnitine hydrochloride] |  | 90 | 70 | 50 |  |  |  |  | 50 | 100 | 350 |  |  |
| CC(O)CC(=O)SC(CC(=O)O)C[N+](C)(C)C (stereo not drawn) [S--hydroxybutyryl thiocarnitine Cl, S-beta hydroxybutyryl thiocarnitine] |  | 100 | 80 | 60 |  |  |  | 300 | 30 | 60 |  | very hygroscopic |  |
| CCC(=O)SC(CC(=O)O)C[N+](C)(C)C (centres unmarked) [S--propionyl thiocarnitine Cl, S-propionyl thiocarnitine halogenide] |  | 90 | 70 | 50 |  |  |  |  | 30 | 70 | 302 |  |  |
| C[N+](C)(C)CC(S)CC(=O)O (centres unmarked) [Thiocarnitine, thiocarnitine hydrochloride] |  | 95 | 60 | 50 |  |  |  | 150 | 40 | 90 |  | very hygroscopic | darkened upon exposure to the atmosphere |
